Laboratory results published in patent US20040248904A1, “New piperidinylamino-thieno[2,3-d] pyrimidine compounds” (priority 2003, published 2004).
Where two headings read alike, the source gives them in different places.

Columns and labels:
5-HT2B = 5-HT2B (Homo sapiens, UniProt P41595); test: 5-HT2B receptor affinity (K1, Table 1); assay type: binding
Experimental: (§1) Compounds of the invention were made according to the respective syntheses noted above, and their activity and selectivity was determined. […] The compounds accordingly are expected to be useful as 5-HT2B receptor modulators, e.g., in the treatment of a wide variety of clinical conditions which are characterized by serotonin excess or absence, e.g., serotoninergic hypofunction or hyperfunction. Such conditions include those noted above, and conditions associated with vascular disorders, e.g., angina, migraine, pulmonary hypertension and systemic hypertension.

Rat Fundus = test: Functional (Antagonist Rat Fundus); assay type: cell-based
Experimental: as §1

[1] = Rat pharmacokinetics (% F, T1/2); conditions: in vivo; for bioavailability: oral, read-out: PK (% F) rat

Sequence of 5-HT2B (P41595 whole entry, species assumed): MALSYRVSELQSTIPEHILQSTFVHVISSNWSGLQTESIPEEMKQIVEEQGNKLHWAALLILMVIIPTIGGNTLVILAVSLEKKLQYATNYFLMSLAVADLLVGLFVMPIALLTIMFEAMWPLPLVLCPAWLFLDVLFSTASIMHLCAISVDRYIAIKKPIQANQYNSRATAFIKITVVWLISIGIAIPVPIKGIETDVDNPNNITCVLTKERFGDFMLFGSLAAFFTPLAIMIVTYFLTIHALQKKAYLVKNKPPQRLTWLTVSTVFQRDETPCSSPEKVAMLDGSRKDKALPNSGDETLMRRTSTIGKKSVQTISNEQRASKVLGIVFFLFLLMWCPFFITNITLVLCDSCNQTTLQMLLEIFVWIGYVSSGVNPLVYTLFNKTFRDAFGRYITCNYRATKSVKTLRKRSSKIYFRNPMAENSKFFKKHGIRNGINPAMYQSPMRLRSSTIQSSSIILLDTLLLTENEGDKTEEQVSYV

With `CC(NCCCNc1ncnc2sc3c(c12)CCCC3)c1cccc(F)c1` (stereo not drawn) [Compound 17] the Ki (5-HT2B) was 52 nM.
Work on `CC(c1c(F)cccc1F)N1CCC(Nc2ncnc3sc4c(c23)CCCC4)CC1` (stereo not drawn) [Compound 16] yielded a Ki (5-HT2B) of 44 nM.
`Fc1cccc(CN2CCC(Nc3ncnc4sc(Cl)cc34)CC2)c1` [Compound 2] gave a Ki (5-HT2B) of 0.79 nM.
`CC(C)c1cc2c(NC3CCN(Cc4cc(F)cc(F)c4)CC3)ncnc2s1` [Compound 1] showed an IC50 (Rat Fundus) of 830 nM, a bioavailability [1] of 9.8% and a Ki (5-HT2B) of 0.57 nM.
`c1ccc(CN2CCC(Nc3ncnc4sc5c(c34)CCCC5)CC2)cc1` [Compound 10] gave an IC50 (Rat Fundus) of 110 nM, a bioavailability [1] of 1.5% and a Ki (5-HT2B) of 13 nM.
For `CC(C)Cc1cc2c(NC3CCN(C(C)c4c(F)cccc4F)CC3)ncnc2s1` (stereo not drawn) [Compound 15], the Ki (5-HT2B) was 20 nM.
Work on `CC(c1cc(F)cc(F)c1)N1CCC(Nc2ncnc3sc4c(c23)CCCC4)CC1` (stereo not drawn) [Compound 5] yielded an IC50 (Rat Fundus) of 1300 nM and a Ki (5-HT2B) of 2.64 nM.
Work on `Fc1cccc(CN2CCC(Nc3ncnc4sc5c(c34)CCCC5)CC2)c1` [Compound 4] yielded an IC50 (Rat Fundus) of 100 nM and a Ki (5-HT2B) of 2.3 nM.
In the case of `Cc1sc2ncnc(NC3CCN(CC4CCCCC4)CC3)c2c1C` [Compound 9], the Ki (5-HT2B) is reported as 7.8 nM.
Work on `CC(C)Cc1cc2c(N3CCC(NCc4cc(F)cc(F)c4)CC3)ncnc2s1` [Compound 26] yielded a Ki (5-HT2B) of 1300 nM.
With `Cc1sc2ncnc(NC3CCN(C(C)c4cccc(F)c4)CC3)c2c1C` (stereo not drawn) [Compound 8] the Ki (5-HT2B) was 4.6 nM.
For `Fc1cc(F)cc(CN2CCC(Nc3ncnc4sccc34)CC2)c1` [Compound 14], the IC50 (Rat Fundus) was 1600 nM, the half-life ([1]; iv, read-out: T1/2 (hr) rat iv (converted)) was 0.3 h and the Ki (5-HT2B) was 18 nM.
In the case of `CC(C)CC(c1cccc(F)c1)N1CCC(Nc2ncnc3sc4c(c23)CCCC4)CC1` (stereo not drawn) [Compound 20], the Ki (5-HT2B) is reported as 84 nM.
`CC(c1cccc(F)c1)N1CCC(Nc2ncnc3sccc23)CC1` (stereo not drawn) [Compound 11] gave a Ki (5-HT2B) of 14 nM.
With `CC(C)(c1cccc(F)c1)N1CCC(Nc2ncnc3sc4c(c23)CCCC4)CC1` [Compound 12] the Ki (5-HT2B) was 15 nM.
For `CC(C#N)(c1cccc(F)c1)N1CCC(Nc2ncnc3sc4c(c23)CCCC4)CC1` (stereo not drawn) [Compound 21], the Ki (5-HT2B) was 120 nM.
For `CC(c1cccc(F)c1)N1CCC(C)(Nc2ncnc3sc4c(c23)CCCC4)CC1` (stereo not drawn) [Compound 25], the Ki (5-HT2B) was 1200 nM.
Work on `CC(C)Cc1cc2c(NCCCNC(C)c3cccc(F)c3)ncnc2s1` (stereo not drawn) [Compound 22] yielded a Ki (5-HT2B) of 150 nM.
`CC(C)Cc1cc2c(NC3CCN(C(C)c4cccc(F)c4)CC3)ncnc2s1` (stereo not drawn) [Compound 3] gave an IC50 (Rat Fundus) of 5300 nM, a bioavailability [1] of 3.9% and a half-life ([1]; po, read-out: T1/2 (hr) rat* po (converted)) of 0.45 h. For the same molecule, the Ki (5-HT2B) was 0.97 nM.
Work on `Fc1cccc(C(N2CCC(Nc3ncnc4sc5c(c34)CCCC5)CC2)C(F)(F)F)c1` (stereo not drawn) [Compound 24] yielded a Ki (5-HT2B) of 950 nM.
With `Fc1cccc(CNCCCNc2ncnc3sc4c(c23)CCCC4)c1` [Compound 13] the Ki (5-HT2B) was 17 nM.
`CC(C)Cc1cc2c(NC3CCN(C(C)c4cc(F)cc(F)c4)CC3)ncnc2s1` (stereo not drawn) [Compound 7] showed an IC50 (Rat Fundus) of 5700 nM, a bioavailability [1] of 2.8% and a Ki (5-HT2B) of 4.2 nM.
With `Cc1sc2ncnc(NC3CCN(Cc4ccccc4C#N)CC3)c2c1C` [Compound 23] the Ki (5-HT2B) was 210 nM.
In the case of `CC(c1c(F)cc(F)cc1F)N1CCC(Nc2ncnc3sc4c(c23)CCCC4)CC1` (stereo not drawn) [Compound 19], the Ki (5-HT2B) is reported as 72 nM.
With `CC(c1cccc(F)c1)N1CCC(Nc2ncnc3sc4c(c23)CCCC4)CC1` (stereo not drawn) [Compound 6] the Ki (5-HT2B) was 4 nM.
Molecule `CC(C)Cc1cc2c(NC3CCN(C(C)c4c(F)cc(F)cc4F)CC3)ncnc2s1` (stereo not drawn) [Compound 18] has a Ki (5-HT2B) of 70 nM.
